Assay results reported in patent US20240327429A1, “[1,3]Thiazolo[4,5-d]-pyrimidon-7-ones as inhibitors of NOX4” (Boehringer Ingelheim International GmbH, priority 2023, published 2024).
pIC50: −log10 of the molar value.

Columns and labels:
[1] = biological target: T1, human NOX3 (hNOX3) (Homo sapiens, UniProt Q9HBY0); assay: NOX3 inhibition assay (L-012), HEK293 cells stably overexpressing human NOX3; type: cell-based; conditions: HEK293-hNOX3, PMA stimulated
T1 construct: pLV-CMV-hNOX3-puro (NM_015718.3); host or cells: HEK293 (CLS GmbH), lentiviral transduction
T1 sequence (Q9HBY0 1-568): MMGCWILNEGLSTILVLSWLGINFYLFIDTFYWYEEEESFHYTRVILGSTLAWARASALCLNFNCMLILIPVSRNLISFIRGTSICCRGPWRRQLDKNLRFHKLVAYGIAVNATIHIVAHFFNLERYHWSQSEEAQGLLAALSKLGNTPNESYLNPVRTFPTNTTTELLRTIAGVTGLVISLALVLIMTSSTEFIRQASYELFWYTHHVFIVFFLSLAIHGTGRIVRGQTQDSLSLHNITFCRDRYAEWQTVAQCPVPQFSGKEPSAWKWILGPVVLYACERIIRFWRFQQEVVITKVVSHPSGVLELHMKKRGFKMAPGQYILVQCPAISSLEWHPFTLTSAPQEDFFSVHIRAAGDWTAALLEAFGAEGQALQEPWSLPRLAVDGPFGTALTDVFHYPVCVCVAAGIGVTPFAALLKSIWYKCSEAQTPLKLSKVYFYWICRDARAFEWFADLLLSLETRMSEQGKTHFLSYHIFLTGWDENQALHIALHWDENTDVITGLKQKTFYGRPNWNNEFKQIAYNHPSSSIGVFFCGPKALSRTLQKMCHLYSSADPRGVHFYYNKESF
T1 sequence (P13498 2-195 partner limits assumed): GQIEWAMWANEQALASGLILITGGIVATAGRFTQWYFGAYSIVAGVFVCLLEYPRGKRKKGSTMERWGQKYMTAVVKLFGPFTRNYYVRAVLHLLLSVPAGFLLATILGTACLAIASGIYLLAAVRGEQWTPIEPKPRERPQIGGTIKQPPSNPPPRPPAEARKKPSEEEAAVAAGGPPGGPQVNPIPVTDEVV
From the text: Plasmids are Purchased from Vectorbuilder. • for HEK-hNOX1 all necessary subunits are cloned accordingly: • pLV-CMV-hNOX1-puro (NM_007052.5) • pLV-CMV-hNOXO1-blas (NM_172168.3) • pLV-CMV-hp22phox-hygro (NM_000101.4) • pLV-CMV-hNOXA1-neo (NM_006647.2) • for HEK-hNOX3 • pLV-CMV-hNOX3-puro (NM_015718.3)
3rd generation lentiviral particles are produced in HEK293 suspension cells by transient transfection of three helper and expression plasmids. Crucial lentivirus supernatants are harvested, clarified by filtration and concentrated by precipitation. Lentivirus titers are determined in transducing units in (TU/mL) by transduction of HT1080 cells and colony forming assay. Parental HEK293 cells, purchased from CLS GmbH, are transduced with replication-incompetent 3rd generation lentiviral particles (MOI 2) and expanded for at least 2 weeks before cryopreservation of tested lots. During cultivation, medium is changed three times per week and cells are sub-cultured at least once per week. Selection antibiotics are added according to the plasmids (1 μg/ml puromycin, 1.5 μg/ml blasticidin, 200 μg/ml G418 and 100 μg/ml hygromycin).
Evaluation of the NOX4 inhibitors on NOX3 activity is assessed in HEK293 cells stably overexpressing human NOX3 (hNOX3).
Cells are seeded in 384 well plates for 2 days. […] Cells are then stimulated with PMA at 0.1 μM to induce NOX3-dependent ROS production. […] Luminescence is measured with an PHERAstar multimode reader.

[2] = biological target: T2, human NOX4 (hNOX4) (Homo sapiens, UniProt Q9NPH5); assay: cell-based
T2 sequence (Q9NPH5 1-578): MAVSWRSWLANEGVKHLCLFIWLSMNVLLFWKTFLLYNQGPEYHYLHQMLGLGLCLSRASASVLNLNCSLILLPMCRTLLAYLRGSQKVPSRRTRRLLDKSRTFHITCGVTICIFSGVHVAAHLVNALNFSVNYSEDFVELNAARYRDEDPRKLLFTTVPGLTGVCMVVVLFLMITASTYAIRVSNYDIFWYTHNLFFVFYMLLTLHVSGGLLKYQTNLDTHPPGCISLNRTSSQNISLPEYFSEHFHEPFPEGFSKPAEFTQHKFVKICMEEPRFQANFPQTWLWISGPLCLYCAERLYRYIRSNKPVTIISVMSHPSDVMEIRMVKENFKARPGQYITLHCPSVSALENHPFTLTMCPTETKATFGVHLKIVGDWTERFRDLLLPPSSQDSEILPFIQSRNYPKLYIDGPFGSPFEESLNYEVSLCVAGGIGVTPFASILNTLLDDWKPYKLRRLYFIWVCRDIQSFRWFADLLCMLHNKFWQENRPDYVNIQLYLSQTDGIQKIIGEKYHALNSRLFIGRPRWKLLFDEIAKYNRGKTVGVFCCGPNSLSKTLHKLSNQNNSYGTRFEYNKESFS
T2 sequence (P13498 2-195 partner limits assumed): T1 sequence (P13498 2-195 partner limits assumed)

Row | Compound | pIC50 [1] | pIC50 [2]
1 | O=c1c2scnc2nc(SCc2c(F)ccc(F)c2F)n1-c1cnc(O)c(F)c1 [Example 45] | 4.15 | 6.95
2 | O=c1c2scnc2nc(SCc2ccc(C(F)(F)F)cc2Cl)n1-c1cnc(O)c(F)c1 [Example 46] | 4.25 | 6.89
3 | N#Cc1cc(-n2c(SCc3c(F)cc(F)cc3F)nc3ncsc3c2=O)cnc1O [Example 47, 2-Hydroxy-5-(7-oxo-5-((2,4,6-trifluorobenzyl)thio)thiazolo[4,5-d]pyrimidin-6(7H)-yl)-nicotinonitrile] | 4.73 | 6.37
4 | O=c1c2scnc2nc(SCc2c(F)cc(F)cc2F)n1-c1cnc(O)c(Cl)c1 [Example 48, 6-(5-Chloro-6-hydroxypyridin-3-yl)-5-((2,4,6-trifluorobenzyl)thio)thiazolo[4,5-d]pyri-midin-7(6H)-one] | < 4.00 | 6.70
5 | O=c1c2scnc2nc(SCc2c(F)cc(F)cc2F)n1-c1cnc(O)cc1F [Example 49, 6-(4-Fluoro-6-hydroxypyridin-3-yl)-5-((2,4,6-trifluorobenzyl)thio)thiazolo[4,5-d]pyrimidin-7(6H)-one] | < 4.00 | 7.35
6 | O=c1c2scnc2nc(SCc2c(F)cc(F)cc2F)n1-c1ccc(O)nc1F [Example 50, 6-(2-Fluoro-6-hydroxypyridin-3-yl)-5-((2,4,6-trifluorobenzyl)thio)thiazolo[4,5-d]-pyrimidin-7(6H)-one] | 4.19 | 7.33
7 | O=c1c2scnc2nc(SCc2c(F)cc(F)cc2F)n1-c1cc(F)c(O)nc1F [Example 51, 6-(2,5-Difluoro-6-hydroxypyridin-3-yl)-5-((2,4,6-trifluorobenzyl)thio)thiazolo[4,5-d]-pyrimidin-7(6H)-one] | 5.19 | 7.29
8 | O=c1c2scnc2nc(SCc2c(F)cc(F)cc2F)n1-c1cnc(O)c(F)c1F [Example 52, 6-(4,5-Difluoro-6-hydroxypyridin-3-yl)-5-((2,4,6-trifluorobenzyl)thio)thiazolo[4,5-d]-pyrimidin-7(6H)-one] | 4.81 | 7.28
9 | O=c1c2scnc2nc(SCc2ccc(Cl)cc2F)n1-c1cnc(O)nc1 [Example 53, 5-((4-Chloro-2-fluorobenzyl)thio)-6-(2-hydroxypyrimidin-5-yl)thiazolo[4,5-d]pyrimidin-7(6H)-one] | < 4.00 | 6.94
10 | Cc1cc(Cl)ccc1CSc1nc2ncsc2c(=O)n1-c1cnc(O)nc1 [Example 54] | 4.31 | 6.95
11 | Cc1cc(F)cc(C)c1CSc1nc2ncsc2c(=O)n1-c1cnc(O)nc1 [Example 55] | < 4.00 | 6.94
12 | O=c1c2scnc2nc(SCc2ccc(Cl)cc2)n1-c1cnc(O)nc1 [Example 56] | < 4.00 | 6.82
13 | O=c1c2scnc2nc(SCc2ccc(C(F)(F)F)cc2F)n1-c1cnc(O)nc1 [Example 57] | < 4.00 | 6.91
14 | Cc1cc(F)ccc1CSc1nc2ncsc2c(=O)n1-c1cnc(O)nc1 [Example 58] | < 4.00 | 6.85
15 | O=c1c2scnc2nc(SCc2c(F)cc(F)cc2F)n1-c1cnc(O)nc1 [Example 59] | < 4.00 | 6.69
16 | O=c1c2scnc2nc(SCc2ccc(C(F)(F)F)cc2)n1-c1cnc(O)nc1 [Example 60] | < 4.00 | 6.63
17 | O=c1c2scnc2nc(SCc2ccc(Cl)cc2F)n1-c1ccc(O)nn1 [Example 61, 5-((4-Chloro-2-fluorobenzyl)thio)-6-(6-hydroxypyridazin-3-yl)thiazolo[4,5-d]pyrimidin-7(6H)-one] | 4.55 | 6.99
18 | Cc1cc(Cl)ccc1CSc1nc2ncsc2c(=O)n1-c1ccc(O)nn1 [Example 62] | < 4.00 | 6.90
19 | Cc1cc(F)cc(C)c1CSc1nc2ncsc2c(=O)n1-c1ccc(O)nn1 [Example 63] | < 4.00 | 6.90
20 | O=c1c2scnc2nc(SCc2ccc(Cl)cc2)n1-c1ccc(O)nn1 [Example 64] | < 4.00 | 6.88
21 | O=c1c2scnc2nc(SCc2ccc(C(F)(F)F)cc2F)n1-c1ccc(O)nn1 [Example 65] | 4.08 | 6.86
22 | O=c1c2scnc2nc(SCc2ccc(C(F)(F)F)cc2)n1-c1ccc(O)nn1 [Example 66] | < 4.00 | 6.86
23 | O=c1c2scnc2nc(SCc2c(F)cc(F)cc2F)n1-c1ccc(O)nn1 [Example 67] | < 4.00 | 6.78
24 | Cc1cc(F)ccc1CSc1nc2ncsc2c(=O)n1-c1ccc(O)nn1 [Example 68] | < 4.00 | 6.84
25 | O=c1c2scnc2nc(SCc2c(F)cc(F)cc2F)n1-c1cnc(O)cn1 [Example 69, 6-(5-Hydroxypyrazin-2-yl)-5-((2,4,6-trifluorobenzyl)thio)thiazolo[4,5-d]pyrimidin-7(6H)-one] | 4.11 | 7.19
